From patent US8729053B2, “Nuclear factor kappa B pathway inhibitor composition and use of same” (The United States of America, as represented by the …, priority 2008, dated 2014)
Structures can show the parent of a compound that is named as a salt.

Tests used:
Type in all cases: cell-based
STAT3 = assay: Immunoblot of TPA-inducible STAT3 phosphorylation; conditions: 17.0 μM and 8.5 μM pretreatment
Description: (§1) To measure endogenous level of several proteins in response to TPA induction and compound I, HEK293 cells were lysed with RIPA buffer (10 mM Tris-HCl pH 7.5, 1 mM EDTA, 0.1% sodium dodecyl sulfate, 0.1% deoxycholate, and protease inhibitor). Whole cell extracts were subjected to immunoblot analysis with the following antibodies: p65 (F-6), p50 (E-10), p52 (C-5), RelB (C-19), IκBα (C-21), PCNA (F-2) were obtained from Santa Cruz Biotechnology (Santa Cruz, Calif.). IKKα, IKKβ, IKKγ, phospho-IκBα, phospho-IKKα/β, phospho-IKKγ, pohospho-Stat3 (Tyr 705 and Ser 727), phospho-p65 (Ser536 and Ser276), phospho-p44/42, phospho-JNKs were purchased from Cell Signaling (Danvers, Mass.), and α-tubulin from Sigma (St. Louis, Mo.). Nuclear and cytoplasmic extracts were prepared with HEK293 cells by NE-PER Nuclear and Cytoplasmic Extraction Reagents (Pierce Biotechnology, Rockford, Ill.) according to the manufacturer's protocol.
The selectivity of compound I was evaluated by measuring phosphorylation of proteins involved in the AP-1 induction pathway. AP-1 dependent transcription can be activated by MAP Kinases JNK, ERK 1/2 (p44/42). […] At these concentrations compound I, in contrast, completely repressed major regulators in the NFκB activation pathway. JNKs are activated by a variety of environmental stresses responsible for AP-1 activation through c-Jun phosphorylation. […]

AP-1 = assay: EMSA of AP-1 DNA binding, HEK293 nuclear fractions; conditions: 17 μM
Description: EMSA was performed with the nuclear fraction of HEK293 cell using LightShift Chemiluminescent EMSA Kit (Pierce Biotechnology, Rockford, Ill.) according to the manufacture's instruction. Oligonucleotides for NFκB, NF-1, and AP-1 were labeled with biotin by Biotin 3′ End DNA labeling Kit (Pierce Biotechnology, Rockford, Ill.). The quantified 15 μg of nuclear extracts were incubated for 20 mins with 1 μg/μl Poly (dI.dC), biotin end-label target nucleotides in 20 μl binding buffer DNA-protein complexes were fractionated on 6% a polyacrylamide gel and transferred to a nylon membrane. The membranes were processed to detect biotin-label DNA by cross-linking, blocking, and detection incubations. Results were obtained by X-ray film exposure for 10 sec and development. The target sequences of oligonucleotides for NFκB, NF-1, and AP-1 are as follows;
To determine whether the effect of compound I on nuclear translocation of NFκB leads to inhibited binding of NFκB proteins to DNA, EMSA in HEK293 cells was performed. […] TPA-induced binding complex was attenuated by pretreatment with compound I in a dose-dependent manner (lanes 5-9). This binding inhibition parallels the inhibition of luciferase reporter transactivation and inhibition of nuclear translocation of NFκB proteins. […]

p65 = assay: Immunoblot of phosphorylated p65
Description: as §1

NFκB = NFκB luciferase reporter assay in HEK293 cells
Description: All expression plasmids were transiently transfected into HEK293 cells in a 96-well plate (0.1 μg/well) by using Effectene transfection reagent (Qiagen, Valencia, Calif.) according to the manufacturer's manual. HEK293 cells were maintained in Dulbecco's modified Eagle medium (Sigma, St. Louis, Mo.) supplemented with 10% fetal bovine serum (Atlanta Biologicals, Lawrenceville, Ga.) and incubated at 37° C. in a 5% CO2 incubator. After 24 hrs incubation, the medium was changed to DMEM with 0.2% FBS, and the transfectants were exposed to various concentrations of compound I and TPA (10 ng/ml). Cells were lysed with passive lysis buffer and the luciferase assay was performed using the Firefly-Luciferase reporter assay system (Promega, Madison, Wis.) and MLX Luminometer (Dynex Technology, Chantilly, Va.).
Three different luciferase reporter genes, AP-1 reporter containing four times TRE consensus originated from GCN4 and SRE reporter purchased from Stratagene (La Jolla, Calif.) respectively are as described previously (Suzukawa et al., Environ. Health Perspect., 2002, 110, 865-70). NFκB reporter is driven by five times NFκB responsive element inserted into Cis-reporter backbone (Stratagene, La Jolla, Calif.). Others include mouse COX-2 promoter region from −203 to +70 relative to the transcription site inserted into pTIS10L vector (Kim and Fischer, J. Biol. Chem., 1998, 273, 27686-94), human uPAR promoter region from −141 to +47 relative to transcription start site in pGL3 vector (Wang et al., Eur. J. Biochem., 2000, 267, 3248-54), and human VEGF promoter sequence from −2274 to +379 inserted into the pGL2 vector (Ding et al., J. Biol. Chem., 2006, 281, 9093-100).
To evaluate whether the compound I biological activity can imitate TAM67 specificity, three different transcriptional promoter reporters were used, AP-1, NFκB, and SRE (Serum response element) in luciferase reporter assays (FIG. 1A: The transfected cells were pre-treated with varied concentrations of compound I or DMSO for 1 hour before 18 hours stimulation by TPA (10 ng/ml) or DMSO as vehicle. An asterisk (*) indicates a separate experiment with NFκB dependent luciferase only. Assays were performed with two independent experiments each in quadruplicate.). All three activities were induced by TPA but only induction of AP-I and NFκB were inhibited by TAM67. The SRE reporter was used as a specificity control and indicator of cell proliferation. TPA-induced SRE activity was not repressed by TAM67 when coexpressed with the SRE-Luc reporter in HEK293 cells. The same concentration (10 ng/ml, 16.2 nM) and incubation time (18 hrs) were used for TPA induction as previously used for the high throughput screen (HTS) (Ruocco et al., J. Biomol. Screen., 2007, 12, 133-9) along with 1 h pretreatment of compound I. The screening results had tested concentrations as high as 40 μM compound I with cell numbers showing 95.5+/−6.2% of DMSO control (ave+/− sd, n=3) by the XTT assay in HEK293T cells.

Cc1cc(N)ccc1N=Nc1ccc(S(=O)(=O)CCOS(=O)(=O)O)cc1 [compound I, 2-(4-((4-amino-2-methylphenyl)diazenyl)phenylsulfonyl)ethyl hydrogen sulfate]
TPA inducible phosphorylation of STAT3 (STAT3): no repression
AP-1 DNA binding activity (AP-1): little or no effect
Phosphorylation of p65 at Ser536 (p65): inhibited
Phosphorylation of p65 at Ser536 and Ser276 (p65; FIG. 7): decreased
Inhibition of TPA-induced NFκB luciferase activity (NFκB; HEK293, TPA 10 ng/ml, compound I at all concentrations tested): dose-dependently inhibited
IC50 (NFκB; Homo sapiens, HEK293, 1 h pretreatment, TPA 10 ng/ml 18 hrs, read-out: IC50 against TPA-induced NFκB reporter): ~4 µM
Inhibition of NFκB induced by TNFα (NFκB; TNFα induction): dose-dependent inhibition
TPA-induced NFκB luciferase activity (NFκB; compound at 17.0 μM): completely blocked to the non-induced level
Transcriptional activation of NFκB dependent genes (NFκB; concentrations as low as 1.1 μM): repressed
Basal NFκB luciferase activity (NFκB; without TPA induction): inhibited, but to a lesser extent
